Assays:
AMBEL (Ragweed, Common) [1] = assay: Postemergence herbicidal evaluation; type: in vivo, Ambrosia artemisifolia; conditions: postemergence
Procedure, shortened: (§1)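 Scores (0–9) reflect plant stand, vigor, malformation, size, chlorosis and general appearance relative to control, read 4 to 5 weeks after treatment and averaged where tests were repeated. Application: about 0.0156–0.500 kg/ha sprayed at 40 psi onto two-week seedlings.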

[2] = system: GLXMAW (Soybean, Williams); assay: Preemergence herbicidal evaluation; type: in vivo, Glycine max, (L.) Merr. cv Williams; conditions: rated 4-5 weeks after treatment
Procedure, shortened: (§2)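 Preemergence soil application of compound, sprayed in aqueous acetone at rates equivalent to about 0.0156 to 0.500 kg per hectare onto freshly sown cups. Plant response was judged by eye on a 0-9 scale four to five weeks later.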

MOOVA (Monochoria) = assay: Preemergence weed control under flooded paddy conditions; type: in vivo, Monochoria vaginalis; conditions: rated 3-4 weeks after treatment
Procedure, shortened: (§3)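 Flooded-pot preemergence screen with silt loam and seeds in the upper 0.5 cm. Dose about 0.0313 to 0.500 kg/ha, delivered into flood water; visual 0-9 score after 3 to 4 weeks.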

[3] = system: TRZAWR (Wheat, Winter, cv Riband); assay: Postemergence herbicidal evaluation; type: in vivo, Triticum aestivum; conditions: postemergence
Procedure, shortened: as §1

CASOB (Sicklepod) [4] = assay: Postemergence herbicidal evaluation; type: in vivo, Cassia obtusifolia; conditions: postemergence
Procedure, shortened: as §1

[5] = system: SAGPY (Arrowhead (Pygmaea)); assay: Preemergence weed control under flooded paddy conditions; type: in vivo, Sagittaria pygmaea; conditions: rated 3-4 weeks after treatment
Procedure, shortened: as §3

[6] = system: CHEAL (Lambsquarters, Common); assay: Postemergence herbicidal evaluation; type: in vivo, Chenopodium album; conditions: postemergence
Procedure, shortened: as §1

ECHCG (Barnyardgrass) = assay: Postemergence herbicidal evaluation; type: in vivo, Echinochloa crus-galli; conditions: postemergence
Procedure, shortened: as §1

CASOB (Sicklepod) [7] = assay: Preemergence herbicidal evaluation; type: in vivo, Cassia obtusifolia; conditions: rated 4-5 weeks after treatment
Procedure, shortened: as §2

[8] = system: GLXMAW (Soybean, Williams); assay: Postemergence herbicidal evaluation; type: in vivo, Glycine max, (L.) Merr. cv Williams; conditions: postemergence
Procedure, shortened: as §1

AMBEL (Ragweed, Common) [9] = assay: Preemergence herbicidal evaluation; type: in vivo, Ambrosia artemisifolia; conditions: rated 4-5 weeks after treatment
Procedure, shortened: as §2

ABUTH (Velvetleaf) = assay: Preemergence herbicidal evaluation; type: in vivo, Abutilon theophrasti; conditions: rated 4-5 weeks after treatment
Procedure, shortened: as §2

[10] = system: CHEAL (Lambsquarters, Common); assay: Preemergence herbicidal evaluation; type: in vivo, Chenopodium album; conditions: rated 4-5 weeks after treatment
Procedure, shortened: as §2

ORYSAT (Rice, Tebonnet) = assay: Preemergence herbicidal evaluation; type: in vivo, Oryza sativa, (L.) Tebonnet; conditions: rated 4-5 weeks after treatment
Procedure, shortened: as §2

[11] = system: IPOHE (Morningglory, Ivyleaf); assay: Postemergence herbicidal evaluation; type: in vivo, Ipomoea hederacea; conditions: postemergence
Procedure, shortened: as §1

[12] = system: IPOHE (Morningglory, Ivyleaf); assay: Preemergence herbicidal evaluation; type: in vivo, Ipomoea hederacea; conditions: rated 4-5 weeks after treatment
Procedure, shortened: as §2

COC(=O)CN1C(=O)CSC1=Nc1cc(-n2c(=O)cc(C(F)(F)F)n(C)c2=O)c(F)cc1Cl [Compound 17, Methyl 2-{{2-chloro-5-[3,6-dihydro-3-methyl-2,6-dioxo-4-(trifluoromethyl)-1(2H)-pyrimidinyl]-4-fluorophenyl}imino}-4-oxo-3-thiazolidineacetate]
0.7: CASOB preemergence herbicidal rating (CASOB (Sicklepod) [7]; rate 0.0313 kg/ha) | CASOB preemergence herbicidal rating (CASOB (Sicklepod) [7]; rate 0.0625 kg/ha) | AMBEL preemergence herbicidal rating (AMBEL (Ragweed, Common) [9]; rate 0.0313 kg/ha) | IPOHE preemergence herbicidal rating ([12]; rate 0.0313 kg/ha)
0.3: GLXMAW preemergence herbicidal rating ([2]; rate 0.0625 kg/ha) | GLXMAW preemergence herbicidal rating ([2]; rate 0.1250 kg/ha)
8.0: CHEAL herbicidal rating ([6]; rate 0.1250 kg/ha) | ECHCG herbicidal rating (ECHCG (Barnyardgrass); rate 0.1250 kg/ha)
3.7: CASOB preemergence herbicidal rating (CASOB (Sicklepod) [7]; rate 0.2500 kg/ha)
4.0: Herbicidal rating SAGPY ([5]; 0.1250 kg/ha) | Herbicidal rating SAGPY ([5]; 0.2500 kg/ha) | CHEAL herbicidal rating ([6]; rate 0.0625 kg/ha) | ABUTH preemergence herbicidal rating (ABUTH (Velvetleaf); rate 0.0313 kg/ha) | IPOHE preemergence herbicidal rating ([12]; rate 0.0625 kg/ha)
6.7: AMBEL preemergence herbicidal rating (AMBEL (Ragweed, Common) [9]; rate 0.2500 kg/ha)
6.5: GLXMAW preemergence herbicidal rating ([2]; rate 0.5000 kg/ha) | ORYSAT preemergence herbicidal rating (ORYSAT (Rice, Tebonnet); rate 0.5000 kg/ha)
7.0: CASOB preemergence herbicidal rating (CASOB (Sicklepod) [7]; rate 0.5000 kg/ha) | IPOHE herbicidal rating ([11]; rate 0.0156 kg/ha)
8.5: IPOHE herbicidal rating ([11]; rate 0.0313 kg/ha)
3.0: AMBEL herbicidal rating (AMBEL (Ragweed, Common) [1]; rate 0.0156 kg/ha) | CHEAL herbicidal rating ([6]; rate 0.0313 kg/ha)
6.0: AMBEL herbicidal rating (AMBEL (Ragweed, Common) [1]; rate 0.0313 kg/ha) | AMBEL herbicidal rating (AMBEL (Ragweed, Common) [1]; rate 0.0625 kg/ha) | CHEAL preemergence herbicidal rating ([10]; rate 0.0313 kg/ha)
0.5: IPOHE preemergence herbicidal rating ([12]; rate 0.0156 kg/ha)
4.3: GLXMAW herbicidal rating ([8]; rate 0.0156 kg/ha) | AMBEL preemergence herbicidal rating (AMBEL (Ragweed, Common) [9]; rate 0.1250 kg/ha)
5.8: GLXMAW herbicidal rating ([8]; rate 0.0625 kg/ha)
0.0: GLXMAW preemergence herbicidal rating ([2]; rate 0.0156 kg/ha) | GLXMAW preemergence herbicidal rating ([2]; rate 0.0313 kg/ha) | CASOB herbicidal rating (CASOB (Sicklepod) [4]; rate 0.0156 kg/ha) | Herbicidal rating SAGPY ([5]; 0.0313 kg/ha) | Herbicidal rating SAGPY ([5]; 0.0625 kg/ha) | ECHCG herbicidal rating (ECHCG (Barnyardgrass); rate 0.0156 kg/ha) | ECHCG herbicidal rating (ECHCG (Barnyardgrass); rate 0.0313 kg/ha) | CASOB preemergence herbicidal rating (CASOB (Sicklepod) [7]; rate 0.0156 kg/ha) | CASOB preemergence herbicidal rating (CASOB (Sicklepod) [7]; rate 0.1250 kg/ha) | AMBEL preemergence herbicidal rating (AMBEL (Ragweed, Common) [9]; rate 0.0156 kg/ha) | ABUTH preemergence herbicidal rating (ABUTH (Velvetleaf); rate 0.0156 kg/ha) | ORYSAT preemergence herbicidal rating (ORYSAT (Rice, Tebonnet); rate 0.0156 kg/ha) | ORYSAT preemergence herbicidal rating (ORYSAT (Rice, Tebonnet); rate 0.0313 kg/ha)
7.5: GLXMAW herbicidal rating ([8]; rate 0.1250 kg/ha)
1.0: CASOB herbicidal rating (CASOB (Sicklepod) [4]; rate 0.0313 kg/ha) | CASOB herbicidal rating (CASOB (Sicklepod) [4]; rate 0.0625 kg/ha) | ORYSAT preemergence herbicidal rating (ORYSAT (Rice, Tebonnet); rate 0.0625 kg/ha) | ORYSAT preemergence herbicidal rating (ORYSAT (Rice, Tebonnet); rate 0.1250 kg/ha)
9.0: AMBEL herbicidal rating (AMBEL (Ragweed, Common) [1]; rate 0.1250 kg/ha) | Herbicidal rating MOOVA (MOOVA (Monochoria); 0.0313 kg/ha) | Herbicidal rating MOOVA (MOOVA (Monochoria); 0.0625 kg/ha) | Herbicidal rating MOOVA (MOOVA (Monochoria); 0.1250 kg/ha) | Herbicidal rating MOOVA (MOOVA (Monochoria); 0.2500 kg/ha) | AMBEL preemergence herbicidal rating (AMBEL (Ragweed, Common) [9]; rate 0.5000 kg/ha) | ABUTH preemergence herbicidal rating (ABUTH (Velvetleaf); rate 0.0625 kg/ha) | ABUTH preemergence herbicidal rating (ABUTH (Velvetleaf); rate 0.1250 kg/ha) | ABUTH preemergence herbicidal rating (ABUTH (Velvetleaf); rate 0.2500 kg/ha) | ABUTH preemergence herbicidal rating (ABUTH (Velvetleaf); rate 0.5000 kg/ha) | CHEAL preemergence herbicidal rating ([10]; rate 0.0625 kg/ha) | CHEAL preemergence herbicidal rating ([10]; rate 0.1250 kg/ha) | CHEAL preemergence herbicidal rating ([10]; rate 0.2500 kg/ha) | CHEAL preemergence herbicidal rating ([10]; rate 0.5000 kg/ha) | IPOHE herbicidal rating ([11]; rate 0.0625 kg/ha) | IPOHE herbicidal rating ([11]; rate 0.1250 kg/ha) | IPOHE preemergence herbicidal rating ([12]; rate 0.2500 kg/ha) | IPOHE preemergence herbicidal rating ([12]; rate 0.5000 kg/ha)
5.7: IPOHE preemergence herbicidal rating ([12]; rate 0.1250 kg/ha)
4.5: TRZAWR herbicidal rating ([3]; rate 0.0313 kg/ha) | CHEAL preemergence herbicidal rating ([10]; rate 0.0156 kg/ha)
7.3: TRZAWR herbicidal rating ([3]; rate 0.1250 kg/ha)
1.7: AMBEL preemergence herbicidal rating (AMBEL (Ragweed, Common) [9]; rate 0.0625 kg/ha)
5.5: TRZAWR herbicidal rating ([3]; rate 0.0625 kg/ha) | CASOB herbicidal rating (CASOB (Sicklepod) [4]; rate 0.1250 kg/ha) | GLXMAW herbicidal rating ([8]; rate 0.0313 kg/ha)
3.3: GLXMAW preemergence herbicidal rating ([2]; rate 0.2500 kg/ha) | TRZAWR herbicidal rating ([3]; rate 0.0156 kg/ha) | ORYSAT preemergence herbicidal rating (ORYSAT (Rice, Tebonnet); rate 0.2500 kg/ha)
2.5: CHEAL herbicidal rating ([6]; rate 0.0156 kg/ha) | ECHCG herbicidal rating (ECHCG (Barnyardgrass); rate 0.0625 kg/ha)
